How the values were obtained:
[1] = target: T1, wild-type nAChR α7 receptors (Homo sapiens, UniProt P36544); experiment: Positive modulation of nAChR α7 receptors expressed in Xenopus laevis oocytes, two-electrode voltage clamp; assay type: cell-based
T1 construct: expressed in transfected cells; host or cells: Xenopus laevis oocytes
Method: In this example the positive modulation of wild-type nAChR α7 receptors by Compound 3 (i.e. 4-Hydroxy-3-methoxy-benzoic acid [3-methyl-4-oxo-4H-naphthalen-(1E)-ylidene]-hydrazide; FIGS. 1A and 1B) was determined using nAChR α7 receptors heterologously expressed in Xenopus laevis oocytes.
The electrical current through the nAChR α7 channel was measured using conventional two-electrode voltage clamp and nAChR α7 currents were activated by applying pulses of agonist-containing solution onto the nAChR α7 expressing oocyte.
In brief, the oocytes were placed in a recording chambers and continuously super-fused with an Oocyte Ringer (OR) solution containing 90 mM NaCl, 2.5 mM KCl, 2.5 mM CaCl2, 1 mM MgCl2 and 5 mM HEPES (pH adjusted to 7.4). The oocytes were clamped at −60 mV and currents were induced by applying 20 s pulses of 100 μM acetylcholine dissolved in OR. The intervals between the acetylcholine applications were 5 minutes, during which the oocytes were washed with OR. The first three applications were control applications to insure a constant response level of 100 μM acetylcholine.
The positive modulation in the presence of Compound 3 was calculated as (test-control)/control*100% and the concentration response curve for this positive modulation was fitted to the sigmoidal logistic equation: I=Imax/(1+(EC50/[compound])n), where Imax represents the maximal modulation of the control response, EC50 is the concentration causing a half maximal response, and n is the slope coefficient.

T1 sequence (P36544 23-502): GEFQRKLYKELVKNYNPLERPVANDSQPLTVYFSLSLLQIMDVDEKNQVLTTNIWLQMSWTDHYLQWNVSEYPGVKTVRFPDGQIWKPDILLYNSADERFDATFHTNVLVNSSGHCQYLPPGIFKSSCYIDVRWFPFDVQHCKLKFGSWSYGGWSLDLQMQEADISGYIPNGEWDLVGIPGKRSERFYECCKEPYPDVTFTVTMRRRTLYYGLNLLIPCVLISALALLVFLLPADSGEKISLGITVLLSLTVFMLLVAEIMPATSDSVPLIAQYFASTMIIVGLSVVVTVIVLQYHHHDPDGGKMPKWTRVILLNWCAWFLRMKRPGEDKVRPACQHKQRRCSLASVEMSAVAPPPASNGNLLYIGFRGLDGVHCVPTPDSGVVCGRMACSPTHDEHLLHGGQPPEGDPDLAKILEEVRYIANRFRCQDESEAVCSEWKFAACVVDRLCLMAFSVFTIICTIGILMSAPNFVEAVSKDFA

Row | SMILES | melting point [°C] | effect on the acetylcholine-induced current amplitude ([1]; 0.01-31.6 μM applied 30 s before and during 100 μM acetylcholine) | Imax (maximal modulation of the control response) ([1]; Xenopus laevis oocytes clamped at −60 mV, 100 μM acetylcholine, (test-control)/control*100%, fitted maximum) [%] | EC50 ([1]; Xenopus laevis oocytes clamped at −60 mV, currents induced by 100 μM acetylcholine, compound 0.01-31.6 μM applied 30 s before and during acetylcholine, read-out: EC50 (concentration causing a half maximal response) of positive modulation) [µM]
1 | CC1=C/C(=N/NC(=O)c2ccc(C#N)cc2)c2ccccc2C1=O [Compound 6, 4-Cyano-benzoic acid [3-methyl-4-oxo-4H-naphthalen-(1Z)-ylidene]-hydrazide] | 290.3 to 292.7 | – | – | –
2 | COc1cc(C(=O)N/N=C2\C=C(C)C(=O)c3ccccc32)ccc1O [Compound 3, 4-Hydroxy-3-methoxy-benzoic acid [3-methyl-4-oxo-4H-naphthalen-(1E)-ylidene]-hydrazide] | 254.8 to 255.6 | robust increase | 98 | 0.49
3 | CC(=O)Nc1ccc(C(=O)N/N=C2\C=C(C)C(=O)c3ccccc32)cc1 [Compound 5, N-{-4-[3-Methyl-4-oxo-4H-naphthalen-(1E)-ylidene-hydrazinocarbonyl]-phenyl}-acetamide] | 280.5 to 280.8 | – | – | –
4 | COc1ccc(C(=O)N/N=C2\C=C(C)C(=O)c3ccccc32)cc1 [Compound 2, 4-Methoxy-benzoic acid [3-methyl-4-oxo-4H-naphthalen-(1E)-ylidene]-hydrazide] | 252.9 to 253.4 | – | – | –
5 | CC1=C/C(=N\NC(=O)c2ccc3[nH]ccc3c2)c2ccccc2C1=O [Compound 4, 1H-Indole-5-carboxylic acid [3-methyl-4-oxo-4H-naphthalen-(1E)-ylidene]-hydrazide] | 251.9 to 252.9 | – | – | –
6 | CC1=C/C(=N\NC(=O)c2ccc(O)cc2)c2ccccc2C1=O [Compound 1, 4-Hydroxy-benzoic acid [3-methyl-4-oxo-4H-naphthalen-(1E)-ylidene]-hydrazide] | 274.3 to 275.7 | – | – | –
